{
  "source": "patent US8487115B2",
  "about": "“Hydantoin derivatives of cyano-substituted chrysanthemic acid esters and their use in pest control” (Sumitomo Chemical Company, Limited, priority 2010, dated 2013)",
  "data": [
    {"tested_on": "German cockroaches", "assay": "Knockdown test on German cockroaches by spraying an oil solution", "format": "in vivo, German cockroach (Blattella germanica)", "details": "0.00156% (w/v) oil solution, 1.5 ml sprayed from 60 cm height, ten German cockroaches (5 male, 5 female), repeated twice", "description": "Each of the present invention compounds (1) and (2) (0.00156 parts) produced in the aforementioned Production Examples was dissolved in 10 parts of dichloromethane and the resulting solution was mixed with 89.99844 parts of deodorized kerosine to prepare a 0.00156% (w/v) oil solution.\nTen German cockroaches (5 of each male and female) were released in a test container (measuring 8.75 cm in diameter and 7.5 cm in height, bottom area covered with a 16 mesh wire netting) coated with butter at an inner wall, and the container was disposed on the bottom of a test chamber (bottom surface measuring 46 cm and 46 cm, 70 cm in height).\nFrom 60 cm in height above the container, 1.5 ml of the oil solution of each of the present invention compounds (1) and (2) was sprayed using a spray gun (spray pressure: 0.4 kg/cm^2). Thirty seconds after spraying, the container was removed from the test chamber. After a given time, the number of knockdowned cockroaches was counted and a knockdown rate was determined (repeated twice). The knockdown rate was calculated by the following equation. Knockdown rate (%)=(number of knockdowned cockroaches/number of test cockroaches)×100\nFor comparison, a test was carried out in the same manner as described above, except that 2,5-dioxo-3-(2-propynyl)imidazolidinylmethyl=(1R)-trans-3-(2-methyl-1-propenyl)-2,2-dimethylcyclopropane carboxylate (compound described in “Pestiside Science”, 1979, 10, p. 291, hereinafter referred to as the comparative compound (1)) represented by the following formula: […]", "units": {"Knockdown rate (%) after 2 minutes": "%"}, "values": [
      {"smiles": "C#CCN1CC(=O)N(COC(=O)[C@@H]2[C@@H](C=C(C)C)C2(C)C)C1=O", "note": "[Comparative compound (1), 2,5-dioxo-3-(2-propynyl)imidazolidinylmethyl=(1R)-trans-3-(2-methyl-1-propenyl)-2,2-dimethylcyclopropane carboxylate]", "Knockdown rate (%) after 2 minutes": 45},
      {"smiles": "C#CCN1CC(=O)N(COC(=O)[C@@H]2[C@@H](/C=C(\\C#N)C=C)C2(C)C)C1=O", "note": "[Present invention compound (1), 2,5-dioxo-3-(2-propynyl)imidazolidinylmethyl=(1R)-trans-3-[(1Z)-2-cyano-1,3-butadienyl]-2,2-dimethylcyclopropane carboxylate]", "Knockdown rate (%) after 2 minutes": 95},
      {"smiles": "C#CCN1CC(=O)N(COC(=O)[C@@H]2[C@@H](/C=C(C#N)/C=C/C)C2(C)C)C1=O", "note": "[Present invention compound (2), 2,5-dioxo-3-(2-propynyl)imidazolidinylmethyl=(1R)-trans-3-[(1Z,3E)-2-cyano-1,3-pentadienyl]-2,2-dimethylcyclopropane carboxylate]", "Knockdown rate (%) after 2 minutes": 100},
      {"smiles": "C#CCN1CC(=O)N(COC(=O)[C@@H]2[C@@H](/C=C(\\C)C=C)C2(C)C)C1=O", "note": "[comparative compound (2), 2,5-dioxo-3-(2-propynyl)imidazolidinylmethyl=(1R)-trans-3-[(1E)-2-methyl-1-butadienyl)-2,2-dimethylcyclopropane carboxylate]", "Knockdown rate (%) after 2 minutes": 10}
    ]}
  ]
}
